Measurements published in patent EP0745595A1, “3-(3-Aryloxyphenyl)-1-(substituted methyl)-s-triazine-2,4,6-oxo or thiotrione herbicidal agents” (American Cyanamid Company, priority 1995, dated 1996).

Experiments:
Assay type in all cases: in vivo
[1] = tested on: ABUTILON THEOPHRASTI, MEDIC.; experiment: Postemergence herbicidal evaluation, ABUTH (Velvetleaf); conditions: for ABUTH, herbicide rating (0-9): rated four to five weeks after treatment, averaged
Method in brief: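 Velvetleaf (Abutilon theophrasti) seedlings were raised in jiffy flats for about two weeks and then sprayed postemergence. The test compound was dispersed in a 50/50 acetone/water mixture containing 0.5% TWEEN®20 and applied through a nozzle operating at 40 psi. Plants were kept on greenhouse benches and rated 0-9 four to five weeks after treatment.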

[2] = tested on: AMBROSIA ARTEMISIIFOLIA, L.; experiment: Postemergence herbicidal evaluation, AMBEL (Ragweed, Common)
Method in brief: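 Common ragweed (Ambrosia artemisiifolia) seedlings were raised in jiffy flats for roughly two weeks, then sprayed postemergence through a nozzle at 40 psi with the test compound dispersed in 50/50 acetone/water carrying 0.5% TWEEN®20. The plants were kept on greenhouse benches under conventional care. Four to five weeks later, injury was rated visually on a 0-9 scale, and repeat tests were averaged.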

[3] = tested on: CASSIA OBTUSIFOLIA, L.; experiment: Postemergence herbicidal evaluation, CASOB (Sicklepod); set-up: key to CASOB rating / Herbicidal effect rating, CASOB / CASOB: 0-9 visual rating scale vs untreated control; conditions: for CASOB, herbicide rating (0-9): rated four to five weeks after treatment, averaged
Method in brief: (§1)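 Visual 0–9 scores reflect stand, vigor, malformation, size, chlorosis and overall appearance relative to control, taken 4–5 weeks after spraying two-week-old seedlings with about 0.125–0.500 kg/ha compound in acetone/water/TWEEN 20.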

[4] = tested on: CHENOPODIUM ALBUM, L.; experiment: Postemergence herbicidal evaluation, CHEAL (Lambsquarters, Common)
Method in brief: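 Seedlings of common lambsquarters (Chenopodium album) were raised in jiffy flats for roughly two weeks, then sprayed postemergence through a nozzle at 40 psi with test compound dispersed in 50/50 acetone/water containing 0.5% TWEEN®20 surfactant. Plants were kept on greenhouse benches under standard care and rated visually on a 0-9 scale versus controls.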

[5] = tested on: IPOMOEA SPP.; experiment: Postemergence herbicidal evaluation, IPOSS (Morningglory spp.)
Method in brief: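 Seedlings of morningglory (Ipomoea spp.) were raised in jiffy flats for roughly two weeks. They were then sprayed postemergence through a nozzle at 40 psi with test compound dispersed in 50/50 acetone/water containing 0.5% TWEEN®20 surfactant. Plants were kept on greenhouse benches under standard care and visually rated 0-9 against controls four to five weeks after treatment.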

[6] = tested on: GALIUM APARINE; experiment: Postemergence herbicidal evaluation, GALAP (Galium); set-up: key to GALAP rating / Herbicidal effect rating, GALAP / GALAP: 0-9 visual rating scale vs untreated control; conditions: for GALAP, herbicide rating (0-9): rated four to five weeks after treatment, averaged
Method in brief: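 Galium (GALAP) seedlings were raised in jiffy flats for about two weeks, then sprayed with test compounds dispersed in 50/50 acetone/water containing 0.5% TWEEN®20, delivered through a nozzle at 40 psi. Plants were kept on greenhouse benches and visually rated 0-9 against a control four to five weeks later; repeat tests were averaged.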

[7] = tested on: ECHINOCHLOA CRUS-GALLI, (L) BEAU; experiment: Postemergence herbicidal evaluation, ECHCG (Barnyardgrass); set-up: key to ECHCG rating / Herbicidal effect rating, ECHCG / ECHCG: 0-9 visual rating scale vs untreated control
Method in brief: as §1

[8] = tested on: SETARIA VIRIDIS, (L) BEAU; experiment: Postemergence herbicidal evaluation, SETVI (Foxtail, Green); set-up: key to SETVI rating / Herbicidal effect rating, SETVI / SETVI: 0-9 visual rating scale vs untreated control; conditions: for SETVI, herbicide rating (0-9): rated four to five weeks after treatment, averaged
Method in brief: as §1

[9] = tested on: TRITICUM AESTIVUM, CV. APOLLO; experiment: Postemergence herbicidal evaluation, TRZAWO (Wheat, Winter, CV. APOLLO)
Method in brief: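 Wheat seedlings, raised in jiffy flats for roughly two weeks, were sprayed postemergence with test compound dispersed in a 50/50 acetone/water mixture containing 0.5% TWEEN®20 surfactant, delivered through a nozzle at 40 psi. Plants were then kept on greenhouse benches under conventional care. Four to five weeks after treatment they were rated visually on a 0-9 scale against an untreated control, and ratings from repeated tests were averaged.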

[10] = tested on: CHENOPODIUM ALBUM, L.; experiment: Preemergence herbicidal evaluation, CHEAL (Lambsquarters, Common); conditions: for CHEAL rating: four to five weeks after treatment
Method in brief: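 Preemergence, greenhouse: seed + potting soil sown on ~1 inch soil in cups; aqueous acetone spray, ~0.125–0.50 kg/ha equivalent; rated 0-9 vs control at 4–5 wk.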

[11] = tested on: ORYZA SATIVA, L. TEBONNET; experiment: Rice tolerance to post-transplant applications under flooded paddy conditions, ORYSAT (Rice, Tebonnet); conditions: for ORYSAT herbicidal rating (rice tolerance): post-transplant rice, rated three to four weeks after treatment; for ORYSAT: post-transplanted rice;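 as to ORYSAT herbicidal rating (rice tolerance): applied to flooded soil surface three days after transplanting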
Method in brief: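 Post-transplant paddy test: compound applied 3 d after transplanting to flooded soil (1.5-3 cm water), ~0.063-0.5 kg/ha a.i., 50/50 aq/acetone. Silt loam, 2 × 10-d seedlings/pot. Greenhouse 3-4 wk, visual 0-9 score vs control.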

COC(=O)Cn1c(=O)n(C)c(=O)n(-c2cc(Oc3c(F)cc(C(F)(F)F)cc3Cl)ccc2Br)c1=O [Compound 2, Methyl 3-{2-bromo-5-[(2-chloro-α,α,α,6-tetrafluoro-p-tolyl)oxy]phenyl}tetrahydro-5-methyl-2,4,6-trioxo-s-triazine-1(2H)-acetate]
Herbicidal effect rating, ABUTH ([1]; 0.063 kg/ha): 8.8 | Herbicidal effect rating, ABUTH ([1]; 0.125 kg/ha): 9.0 | Herbicidal effect rating, ABUTH ([1]; 0.250 kg/ha): 9.0 | Herbicidal effect rating, ABUTH ([1]; 0.500 kg/ha): 9.0 | ABUTH, herbicide rating (0-9) ([1]; Rate 0.125 kg/ha): 9.0 | ABUTH, herbicide rating (0-9) ([1]; Rate 0.250 kg/ha): 9.0 | ABUTH, herbicide rating (0-9) ([1]; Rate 0.500 kg/ha): 9.0 | Herbicidal effect rating, AMBEL ([2]; 0.063 kg/ha): 8.0 | Herbicidal effect rating, AMBEL ([2]; 0.125 kg/ha): 7.3 | Herbicidal effect rating, AMBEL ([2]; 0.250 kg/ha): 7.5 | Herbicidal effect rating, AMBEL ([2]; 0.500 kg/ha): 8.0 | Herbicidal effect rating, CASOB ([3]; 0.063 kg/ha): 9.0 | Herbicidal effect rating, CASOB ([3]; 0.125 kg/ha): 9.0 | Herbicidal effect rating, CASOB ([3]; 0.250 kg/ha): 9.0 | Herbicidal effect rating, CASOB ([3]; 0.500 kg/ha): 9.0 | CASOB, herbicide rating (0-9) ([3]; Rate 0.125 kg/ha): 9.0 | CASOB, herbicide rating (0-9) ([3]; Rate 0.250 kg/ha): 9.0 | CASOB, herbicide rating (0-9) ([3]; Rate 0.500 kg/ha): 9.0 | Herbicidal effect rating, CHEAL ([4]; 0.063 kg/ha): 8.8 | Herbicidal effect rating, CHEAL ([4]; 0.125 kg/ha): 8.7 | Herbicidal effect rating, CHEAL ([4]; 0.250 kg/ha): 8.5 | Herbicidal effect rating, CHEAL ([4]; 0.500 kg/ha): 8.5 | Herbicidal effect rating, IPOSS ([5]; 0.063 kg/ha): 8.3 | Herbicidal effect rating, IPOSS ([5]; 0.125 kg/ha): 8.7 | Herbicidal effect rating, IPOSS ([5]; 0.250 kg/ha): 9.0 | Herbicidal effect rating, IPOSS ([5]; 0.500 kg/ha): 9.0 | Herbicidal effect rating, GALAP ([6]; 0.063 kg/ha): 9.0 | Herbicidal effect rating, GALAP ([6]; 0.125 kg/ha): 9.0 | Herbicidal effect rating, GALAP ([6]; 0.250 kg/ha): 9.0 | Herbicidal effect rating, GALAP ([6]; 0.500 kg/ha): 9.0 | GALAP, herbicide rating (0-9) ([6]; Rate 0.125 kg/ha): 9.0 | GALAP, herbicide rating (0-9) ([6]; Rate 0.250 kg/ha): 9.0 | GALAP, herbicide rating (0-9) ([6]; Rate 0.500 kg/ha): 9.0 | Herbicidal effect rating, ECHCG ([7]; 0.063 kg/ha): 5.0 | Herbicidal effect rating, ECHCG ([7]; 0.125 kg/ha): 6.7 | Herbicidal effect rating, ECHCG ([7]; 0.250 kg/ha): 9.0 | Herbicidal effect rating, ECHCG ([7]; 0.500 kg/ha): 9.0 | Herbicidal effect rating, SETVI ([8]; 0.063 kg/ha): 7.5 | Herbicidal effect rating, SETVI ([8]; 0.125 kg/ha): 9.0 | Herbicidal effect rating, SETVI ([8]; 0.250 kg/ha): 9.0 | Herbicidal effect rating, SETVI ([8]; 0.500 kg/ha): 9.0 | SETVI, herbicide rating (0-9) ([8]; Rate 0.125 kg/ha): 9.0 | SETVI, herbicide rating (0-9) ([8]; Rate 0.250 kg/ha): 9.0 | SETVI, herbicide rating (0-9) ([8]; Rate 0.500 kg/ha): 9.0 | Herbicidal effect rating, TRZAWO ([9]; 0.063 kg/ha): 7.0 | Herbicidal effect rating, TRZAWO ([9]; 0.125 kg/ha): 7.5 | Herbicidal effect rating, TRZAWO ([9]; 0.250 kg/ha): 8.0 | Herbicidal effect rating, TRZAWO ([9]; 0.500 kg/ha): 8.5 | CHEAL ([10]; Rate 0.063 kg/ha): 9.0 | CHEAL ([10]; Rate 0.125 kg/ha): 9.0 | CHEAL rating ([10]; Rate 0.125 kg/ha): 9.0 | CHEAL ([10]; Rate 0.250 kg/ha): 9.0 | CHEAL rating ([10]; Rate 0.250 kg/ha): 9.0 | CHEAL ([10]; Rate 0.500 kg/ha): 9.0 | CHEAL rating ([10]; Rate 0.500 kg/ha): 9.0 | ORYSAT herbicidal rating (rice tolerance) ([11]; Rate 0.063 kg/ha): 2.5 | ORYSAT herbicidal rating (rice tolerance) ([11]; Rate 0.125 kg/ha): 4.0 | ORYSAT herbicidal rating (rice tolerance) ([11]; Rate 0.250 kg/ha): 5.5 | ORYSAT herbicidal rating (rice tolerance) ([11]; Rate 0.500 kg/ha): 6.7

COC(=O)Cn1c(=O)n(C)c(=O)n(-c2cc(Oc3ccc(C(F)(F)F)cc3Cl)ccc2[N+](=O)[O-])c1=O [Compound 3, Methyl 3-{5-[(2-chloro-α,α,α-trifluoro-p-tolyl)oxy]-2-nitrophenyl}tetrahydro-5-methyl-2,4,6-trioxo-s-triazine-1(2H)-acetate]
Herbicidal effect rating, ABUTH ([1]; 0.031 kg/ha): 7.3 | Herbicidal effect rating, ABUTH ([1]; 0.063 kg/ha): 8.1 | Herbicidal effect rating, ABUTH ([1]; 0.125 kg/ha): 8.8 | Herbicidal effect rating, ABUTH ([1]; 0.250 kg/ha): 8.9 | Herbicidal effect rating, AMBEL ([2]; 0.031 kg/ha): 8.3 | Herbicidal effect rating, AMBEL ([2]; 0.063 kg/ha): 8.6 | Herbicidal effect rating, AMBEL ([2]; 0.125 kg/ha): 8.8 | Herbicidal effect rating, AMBEL ([2]; 0.250 kg/ha): 9.0 | Herbicidal effect rating, CASOB ([3]; 0.031 kg/ha): 7.7 | Herbicidal effect rating, CASOB ([3]; 0.063 kg/ha): 8.4 | Herbicidal effect rating, CASOB ([3]; 0.125 kg/ha): 8.8 | Herbicidal effect rating, CASOB ([3]; 0.250 kg/ha): 8.4 | Herbicidal effect rating, CHEAL ([4]; 0.031 kg/ha): 5.1 | Herbicidal effect rating, CHEAL ([4]; 0.063 kg/ha): 6.0 | Herbicidal effect rating, CHEAL ([4]; 0.125 kg/ha): 7.2 | Herbicidal effect rating, CHEAL ([4]; 0.250 kg/ha): 7.4 | Herbicidal effect rating, IPOSS ([5]; 0.031 kg/ha): 7.6 | Herbicidal effect rating, IPOSS ([5]; 0.063 kg/ha): 8.3 | Herbicidal effect rating, IPOSS ([5]; 0.125 kg/ha): 8.9 | Herbicidal effect rating, IPOSS ([5]; 0.250 kg/ha): 8.9 | Herbicidal effect rating, GALAP ([6]; 0.031 kg/ha): 8.2 | Herbicidal effect rating, GALAP ([6]; 0.063 kg/ha): 8.3 | Herbicidal effect rating, GALAP ([6]; 0.125 kg/ha): 8.7 | Herbicidal effect rating, GALAP ([6]; 0.250 kg/ha): 8.4 | Herbicidal effect rating, ECHCG ([7]; 0.031 kg/ha): 4.3 | Herbicidal effect rating, ECHCG ([7]; 0.063 kg/ha): 5.1 | Herbicidal effect rating, ECHCG ([7]; 0.125 kg/ha): 6.7 | Herbicidal effect rating, ECHCG ([7]; 0.250 kg/ha): 7.9 | Herbicidal effect rating, SETVI ([8]; 0.031 kg/ha): 3.9 | Herbicidal effect rating, SETVI ([8]; 0.063 kg/ha): 5.1 | Herbicidal effect rating, SETVI ([8]; 0.125 kg/ha): 6.8 | Herbicidal effect rating, SETVI ([8]; 0.250 kg/ha): 7.9 | Herbicidal effect rating, TRZAWO ([9]; 0.031 kg/ha): 6.1 | Herbicidal effect rating, TRZAWO ([9]; 0.063 kg/ha): 6.8 | Herbicidal effect rating, TRZAWO ([9]; 0.125 kg/ha): 7.1 | Herbicidal effect rating, TRZAWO ([9]; 0.250 kg/ha): 7.6 | CHEAL rating ([10]; Rate 0.125 kg/ha): 9.0 | CHEAL rating ([10]; Rate 0.250 kg/ha): 9.0 | CHEAL rating ([10]; Rate 0.500 kg/ha): 9.0 | ORYSAT herbicidal rating (rice tolerance) ([11]; Rate 0.063 kg/ha): 2.7 | ORYSAT herbicidal rating (rice tolerance) ([11]; Rate 0.125 kg/ha): 3.0 | ORYSAT herbicidal rating (rice tolerance) ([11]; Rate 0.250 kg/ha): 3.8 | ORYSAT herbicidal rating (rice tolerance) ([11]; Rate 0.500 kg/ha): 4.0 | ORYSAT ([11]; Rate 0.031 kg/ha): 1.0 | ORYSAT ([11]; Rate 0.063 kg/ha): 2.7 | ORYSAT ([11]; Rate 0.125 kg/ha): 3.0 | ORYSAT ([11]; Rate 0.250 kg/ha): 3.8
